One block for each molecule: values may come before it.
Key:
[1] = system: fetal rat bones (radii and ulnae) in organ culture; assay: PTH-induced bone resorption in organ culture (45calcium release); type: cell-based; details: for effect on PTH-enhanced bone resorption, in words: concentrations 0.2-300 μg/ml
Description: The technique used to assess bone resorption is based on monitoring the release of radioactive calcium, previously incorporated by embryonic bones in vivo, during organ culture. Pregnant Sprague-Dawley rats were injected subcutaneously with 200 μCi of ^45 calcium chloride on the 18th day of gestation. The following day, the animals were killed, the fetuses removed, and the radii and ulnae dissected under aseptic conditions. […] The bones were then randomly distributed and each bone, either a radius or ulna, was incubated in 0.5 ml of culture media alone or in a media containing parathyroid hormone (PTH: human synthetic 1-34 peptide, Beckman Instruments, Inc., Palo Alto, California) added in a final concentration of 1.0 μg/ml; the experimental bones were incubated in the PTH containing medium to which was added different concentrations (0.2-300 μg/ml) of the antibiotics to be tested. The bones were cultured for 5 days, with the media being changed after day 2, and the incubation terminated. The bones were decalcified in 0.2 ml of 5% trichloroacetic acid and the ^45 calcium content of the residual bones and of the culture media was measured as described previously. (Werner and Raisz, Endocrinology, 90, 752 (1972 ) and Gomes, et. al., Calc. Tiss. Res., 19, 285 (1976)). The ^45 calcium released into the media was calculated as a percentage of the total radioactive calcium measured in the bones.

[2] = target: T1, rat PMNL collagenolytic activity (PMNL collagenase) (Rattus norvegicus, UniProt O88766); assay: Rat PMNL collagenolytic activity in vitro (14C-collagen gel lysis); type: biochemical; details: for Collagenolytic Activity: % ^14 C-collagen gel lyzed / effect on PMNL collagenolytic activity, in words: Table 2; for Collagenolytic Activity: % ^14 C-collagen gel lyzed: PMNL extract (30 × 10^6 PMNLs per ml) + 20 ug/ml, control extract 39.0
T1 construct: An extract of PMNLs was prepared; from tissue; host or cells: extract of peritoneal exudate polymorphonuclear leucocytes of non-diabetic rats, elicited with glycogen
T1 sequence (O88766 102-466): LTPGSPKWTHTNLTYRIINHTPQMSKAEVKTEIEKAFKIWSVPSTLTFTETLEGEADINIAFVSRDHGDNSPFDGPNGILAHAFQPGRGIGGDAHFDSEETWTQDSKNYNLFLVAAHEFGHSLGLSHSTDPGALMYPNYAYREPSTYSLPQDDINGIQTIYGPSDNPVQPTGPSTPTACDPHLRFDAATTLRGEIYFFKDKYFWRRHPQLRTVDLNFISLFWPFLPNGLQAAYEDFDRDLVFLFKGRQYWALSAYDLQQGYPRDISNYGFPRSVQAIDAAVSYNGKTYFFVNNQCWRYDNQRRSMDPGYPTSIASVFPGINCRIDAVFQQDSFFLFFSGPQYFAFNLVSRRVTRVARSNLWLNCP
Description: To test the effect of physiologic levels of minocycline (the concentration in human serum, during a therapeutic regimen, is approximately 2 ug/ml; that in the gingival crevicular fluid is 4-5 times greater; Ciancio, et. al., 1980, J. Periodontol., 51, 531-534) on mammalian collagenolytic activity in vitro, peritonealexudate polymorphomuclear leucocytes (PMNLs) were collected from 15 mole (non-diabetic) rats 4 hours after I.P. injection of 0.15% glycogen. An extract of PMNLs was prepared, 250 μl aliquots of this extract were incubated with ^14 C-glycine labeled collagen fibrils for 14 hours at 35° C. (in the presence or absence of minocycline, or EDTA, or additional CaCl2), and collagenolytic activity was measured as described by Nicoll, et al., (Experientia., 37, 315-317).
The techniques used to measure the collagenolytic enzyme activity of gingival tissue in culture, and in polymorphonuclear leucocytes (PMNLs), are those described by Golub, et. al., (J. Dent. Res., 57, 520-525 (197)8) and Nicoll, et. al., (Experimentia, 37, 315-317, (1981)) with minor modifications.

[3] = system: GCF collagenase and gingival disease in diabetic twins; assay: Human gingival crevicular fluid (GCF) study, diabetic twin brothers; type: in vivo; details: 7 days of treatment
Description: In a separate study involving humans, gingival crevicular fluid (GCF) samples were collected on filter paper strips inserted into 8 interproximal pockets of selected teeth in the maxillary arch of two twin brothers with juvenile-onset (insulin-dependent) diabetes mellitus. Fluid volume was immediately determined on a modified Periotron (Model 6000, Harco Electronics Ltd., Winnipeg, Canada); then incubated with 10 μl (^3 H-methyl) collagen (20,675 DPM) and 70 μl buffer (50 mM Tris-HCl, pH 7.8, containing 0.2 M sodium chloride and 5 mM calcium chloride). The GCF samples (or reagent blanks or trypsin controls) were incubated at 27° C. for 18 hours with gentle shaking. The reaction was stopped and undigested collagen precipitated by adding 10 μl 0.1 M phenanthroline in dioxane/water (1:1, v/v), 10 μl of nonradioactive methylated carrier collagen (2 mg/ml) in 50 mM Tris-HCl buffer containing 1M NaCl (pH 7.0), and 100 μl dioxane. After mixing, the radiolabeled collagen degradation products were collected by filtration and counted in a liquid scintillation spectrometer (Golub, et. al., 1976, J. Dent. Res., 55, 1049). Using this technique, the reaction blank (no enzyme or GCF added) released about 10% of the total substrate counts; 2-20 ng bacterial collagenase produced a linear increase in the release of radioactive counts from the ^3 H-collagen substrate (the 20 ng level of enzyme degraded 60% of the collagen substrate); and 50 ng trypsin released less than 1% of the counts above blank values. GCF collagenase activity was expressed as units of equivalent activity of vertebrate collagenase (obtained from New England Nuclear, Cat. No. NEK-016); 1 unit was operationally defined as the amount of enzyme that degrades 1 μg of collagen per hour at 27° C.
Four additional GCF samples were collected from other maxillary pockets of the same diabetic twin brothers on filter paper strips, their volume determined (see above), and collagenolytic activity assessed using the same procedure described above but with a different substrate (10 μl of (^3 H-propionate) collagen, NET-660, New England Nuclear Corp., Boston, Mass., 302,000 DPM).
Half of the 12 GCF samples per subject were activated by pretreatment with 1.04 uM trypsin followed by the addition of a 5-fold molar excess of soybean trypsin inhibitor. Samples were selected to be treated or not treated with trypsin by matching them for Gingival Index (Loe and Silness, Acta. Odont. Scand., 21, 533-551 (1967)), GCF flow, and for pocket depth; the clincal parameters (GI, PD) were measured immediately after GCF collection. All measurements were carried out immediately before antibiotic coverage and after 7 days of treatment with either pencillin G (lg. per day; patient three) or the tetracycline minocycline (200 mg/day; patient one).

[4] = system: ^14 C-glycine labeled collagen fibrils; assay: Lysis of 14C-collagen gel by control enzymes (no PMNL extract); type: biochemical; details: Table 1, 1 μg enzyme
[5] = penicillin G 1 g per day (P. D.) or minocycline 200 mg/day (K. D.)

Collagenolytic Activity: % ^14 C-collagen gel lyzed [2]: 4.5%
Molecule: C[C@H]1c2cccc(O)c2C(O)=C2C(=O)[C@]3(O)C(O)=C(C(N)=O)C(=O)[C@@H](N(C)C)[C@@H]3[C@@H](O)[C@@H]21 [doxycycline, Doxycycline]
^45 Calcium in Fetal Bone Released into Media (%) after 2 days incubation ([1]; Table 4, first column, PTH + 0.2 μg/ml): 56.6 ± 2.0%
^45 Calcium in Fetal Bone Released into Media (%) after 2 days incubation ([1]; Table 4, first column, PTH + 2.0 μg/ml): 57.5 ± 2.5%
^45 Calcium in Fetal Bone Released into Media (%) after 2 days incubation ([1]; Table 4, first column, PTH + 20 μg/ml): 30.6 ± 1.7%
^45 Calcium in Fetal Bone Released into Media (%) after 2 days incubation ([1]; Table 4, first column, PTH + 200 μg/ml): 18.8 ± 1.1%
^45 Calcium in Fetal Bone Released into Media (%) after 2 days incubation ([1]; Table 4, second column, PTH + 0.2 μg/ml): 97.1 ± 0.7%
^45 Calcium in Fetal Bone Released into Media (%) after 2 days incubation ([1]; Table 4, second column, PTH + 2.0 μg/ml): 93.5 ± 1.7%
^45 Calcium in Fetal Bone Released into Media (%) after 2 days incubation ([1]; Table 4, second column, PTH + 20 μg/ml): 35.3 ± 1.6%
^45 Calcium in Fetal Bone Released into Media (%) after 2 days incubation ([1]; Table 4, second column, PTH + 200 μg/ml): 28.7 ± 0.8%
effect on PTH-enhanced bone resorption, in words [1]: inhibited bone resorption in a dose responsive manner

Molecule: CC1(C)S[C@@H]2[C@H](NC(=O)Cc3ccccc3)C(=O)N2[C@H]1C(=O)O [penicillin]
effect on PTH-enhanced bone resorption, in words [1]: no detectable effect
GCF flow [3, 5]: little or no effect
Gram-positive and Gram-negative organisms in the pockets [3, 5]: reduced the Gram-positive but increased the Gram-negative organisms
active GCF collagenase [3, 5]: little or no effect
pocket depth [3, 5]: little or no effect
total GCF collagenase (after trypsin pretreatment) [3, 5]: appeared to increase
Gingival Index (G. I.) ([3]; penicillin G 1 g per day (patient three) or minocycline 200 mg/day (patient one)): little or no effect

Molecule: PTH: parathyroid hormone, human synthetic 1-34 peptide, Beckman Instruments, final concentration 1.0 μg/ml
increase of the loss of radiolabeled calcium by addition of PTH ([1]; PTH 1.0 μg/ml versus culture media alone, Tables 3-5): 90-160%
^45 Calcium in Fetal Bone Released into Media (%) after 2 days incubation ([1]; Table 3, PTH alone 1.0 μg/ml, no addition 19.9 ± 1.5): 46.1 ± 1.9%
^45 Calcium in fetal bone Released into media (%) after 5 days incubation ([1]; Table 3, PTH alone 1.0 μg/ml, no addition 27.6 ± 1.3): 73.3 ± 1.3%
^45 Calcium in Fetal Bone Released into Media (%) after 2 days incubation ([1]; Table 4, PTH alone, no addition 27.1 ± 1.0): 61.6 ± 1.2%
^45 Calcium in Fetal Bone Released into Media (%) after 2 days incubation ([1]; Table 4, PTH alone, no addition 50.8 ± 1.8): 97.9 ± 0.7%
^45 Calcium in Fetal Bone Released into Media (%) after 2 days incubation ([1]; Table 5, PTH alone, no addition 22.4 ± 0.7): 51.2 ± 1.4%
^45 Calcium in fetal bone Released into media (%) after 5 days incubation ([1]; Table 5, PTH alone, no addition 46.7 ± 3.0): 91.9 ± 1.7%

Molecule: [H]/N=C(/N)N[C@H]1[C@H](O)[C@@H](O)[C@H](O[C@@H]2O[C@@H](C)[C@](O)(C=O)[C@H]2O[C@@H]2O[C@@H](CO)[C@H](O)[C@@H](O)[C@@H]2NC)[C@@H](N/C(N)=N\[H])[C@@H]1O [streptomycin]
effect on PTH-enhanced bone resorption, in words [1]: no detectable effect

Molecule: CN(C)[C@@H]1C(=O)C(C(N)=O)=C(O)[C@@]2(O)C(=O)C3=C(O)c4c(O)cccc4[C@@](C)(O)[C@H]3[C@H](O)[C@@H]12 [Terramycin, Oxytetracycline]
Collagenolytic Activity: % ^14 C-collagen gel lyzed [2]: 4.4%

effect on PMNL collagenolytic activity, in words [2]: ineffective
Collagenolytic Activity: % ^14 C-collagen gel lyzed [2]: 50.0%
Molecule: Cc1nnc(SCC2=C(C(=O)O)N3C(=O)[C@@H](NC(=O)Cn4cnnn4)[C@H]3SC2)s1 [cefazolin]
^45 Calcium in Fetal Bone Released into Media (%) after 2 days incubation ([1]; Table 5, PTH + 6 μg/ml): 50.8 ± 1.3%
^45 Calcium in fetal bone Released into media (%) after 5 days incubation ([1]; Table 5, PTH + 6 μg/ml): 93.1 ± 0.5%
^45 Calcium in Fetal Bone Released into Media (%) after 2 days incubation ([1]; Table 5, PTH + 20 μg/ml): 54.2 ± 1.4%
^45 Calcium in fetal bone Released into media (%) after 5 days incubation ([1]; Table 5, PTH + 20 μg/ml): 93.6 ± 0.4%
^45 Calcium in Fetal Bone Released into Media (%) after 2 days incubation ([1]; Table 5, PTH + 60 μg/ml): 54.5 ± 1.2%
^45 Calcium in fetal bone Released into media (%) after 5 days incubation ([1]; Table 5, PTH + 60 μg/ml): 94.6 ± 1.2%
^45 Calcium in Fetal Bone Released into Media (%) after 2 days incubation ([1]; Table 5, PTH + 120 μg/ml): 50.3 ± 3.1%
^45 Calcium in fetal bone Released into media (%) after 5 days incubation ([1]; Table 5, PTH + 120 μg/ml): 90.2 ± 3.1%
^45 Calcium in Fetal Bone Released into Media (%) after 2 days incubation ([1]; Table 5, PTH + 200 μg/ml): 50.9 ± 1.3%
^45 Calcium in fetal bone Released into media (%) after 5 days incubation ([1]; Table 5, PTH + 200 μg/ml): 92.1 ± 0.6%
effect on PTH-enhanced bone resorption, in words [1]: no detectable effect

Molecule: O=C(O)CN(CCN(CC(=O)O)CC(=O)O)CC(=O)O [EDTA]
effect on PMNL collagenolytic (collagenase) activity, in words ([2]; Table 1): completely inihibited
Collagenolytic Activity: % ^14 C-collagen gel lysed ([2]; Table 1, PMNL extract + 54 mM, control extract 85.5): 3.1%

effect on PMNL collagenolytic activity, in words [2]: ineffective
Collagenolytic Activity: % ^14 C-collagen gel lyzed [2]: 35.7%
Molecule: CC1(C)S[C@@H]2[C@H](NC(=O)[C@H](N)c3ccccc3)C(=O)N2[C@H]1C(=O)O [ampicillin]
^45 Calcium in Fetal Bone Released into Media (%) after 2 days incubation ([1]; Table 5, PTH + 6 μg/ml): 52.3 ± 1.9%
^45 Calcium in fetal bone Released into media (%) after 5 days incubation ([1]; Table 5, PTH + 6 μg/ml): 92.2 ± 2.0%
^45 Calcium in Fetal Bone Released into Media (%) after 2 days incubation ([1]; Table 5, PTH + 20 μg/ml): 52.8 ± 1.7%
^45 Calcium in fetal bone Released into media (%) after 5 days incubation ([1]; Table 5, PTH + 20 μg/ml): 92.6 ± 0.5%
^45 Calcium in Fetal Bone Released into Media (%) after 2 days incubation ([1]; Table 5, PTH + 40 μg/ml): 51.9 ± 2.1%
^45 Calcium in fetal bone Released into media (%) after 5 days incubation ([1]; Table 5, PTH + 40 μg/ml): 94.2 ± 1.1%
^45 Calcium in Fetal Bone Released into Media (%) after 2 days incubation ([1]; Table 5, PTH + 60 μg/ml): 50.9 ± 1.7%
^45 Calcium in fetal bone Released into media (%) after 5 days incubation ([1]; Table 5, PTH + 60 μg/ml): 93.9 ± 0.7%
^45 Calcium in Fetal Bone Released into Media (%) after 2 days incubation ([1]; Table 5, PTH + 200 μg/ml): 50.8 ± 1.8%
^45 Calcium in fetal bone Released into media (%) after 5 days incubation ([1]; Table 5, PTH + 200 μg/ml): 91.4 ± 0.7%
effect on PTH-enhanced bone resorption, in words [1]: no detectable effect

Collagenolytic Activity: % ^14 C-collagen gel lysed [4]: 2.6%
B1: Trypsin: protease control for non-specific proteolysis of the collagen substrate (protein, UniProt P00760 24-246, looked up)
Serine protease 1: IVGGYTCGANTVPYQVSLNSGYHFCGGSLINSQWVVSAAHCYKSGIQVRLGEDNINVVEGNEQFISASKSIVHPSYNSNTLNNDIMLIKLKSAASLNSRVASISLPTSCASAGTQCLISGWGNTKSSGTSYPDVLKCLKAPILSDSSCKSAYPGQITSNMFCAGYLEGGKDSCQGDSGGPVVCSGKLQGIVSWGSGCAQKNKPGVYTKVCNYVSWIKQTIASN

Reference: patent US4666897A, “Inhibition of mammalian collagenolytic enzymes by tetracyclines” (Research Foundation of State University, priority 1983, dated 1987)
